# Experimental data reported in patent US10016515B2, “DMA, a bis-benzimidazole, confers radioprotection to the intestine via Akt/NFκB dual pathway activation” (Jawaharlal Nehru University, priority 2016, dated 2018).
# Columns and labels:
# [1] = Plasma pharmacokinetics of DMA; format: in vivo, mouse
# Protocol: Oral and intravenous pharmacokinetics of DMA was performed at a dose of 100 and 50 mg/kg bw, respectively. Control mice were administered equal volume of sterile water. Blood samples were collected by cardiac puncture at 1, 2, 4, 6, 16, and 24 h after oral and intravenous administration of DMA. Plasma was spiked with Hoechst 33342 as internal standard. Plasma proteins were precipitated by adding 180 μl acetonitrile and the samples were centrifuged at 14000 rpm for 10 min at 4° C. Clear supernatant […] was taken and […] distilled water was added to get a ˜35% acetonitrile solution. The samples were injected onto HPLC-MS/MS system.
# A standard DMA calibration from 1-1000 ng/ml with internal standard (20 ng/ml) was quantified. Sample analysis was performed on positive ionization mode LC-MS/MS with multiple reactions monitoring (MRM, m/z Q1/Q3) of DMA (m/z 235.1/412.0, retention time (RT) 5.3 min) and internal standard (m/z 227.1/396.0, RT 6.5 min) (Agilent 6410 series). A gradient method was employed to analyze the plasma samples using mobile phase A (0.1% formic acid in water) and mobile phase B (methanol). The B % was set as 30 (0 min), 90 (10-14 min), 30 (14-24 min) with flow rate of 0.3 ml/min. An injection volume of 10 μl was used for analysis.
# Peak tissue concentration (Cmax) of DMA and time to reach the Cmax (tmax) were read directly from the raw data by visual examination of mean tissue concentration-time profile. The tissue concentration-time data following oral dose were subjected to one-, two- and three-compartmental models using WinNonlin program (version 6.3; Certara Inc, Missouri, USA) to calculate the pharmacokinetic parameters. The pharmacokinetic models were compared according to maximal correlation between observed and predicted concentration, minimal sum of squared residuals, Akaike Information Criterion (AIC) and Schwarz Bayesian Criterion (SBC). However, the tissue concentration-time data following intravenous administration were subjected to non-compartmental approach.
# [2] = system: Balb/c mice intestine tissue; test: Gene expression at mRNA level by RT-PCR; format: in vivo, mouse
# Protocol: The cDNA generated from total RNA was amplified using 1 μl of the reaction products in 10 μl with respective primers for 45 cycles following standard RT-PCR cycle by SYBR green dye. Transcript levels were calculated according to the 2^−ΔΔCt method, normalized to the expression of GAPDH, and expressed as fold change compared with control.
# [3] = system: HEK293 cells; test: Clonogenicity assay with Akt depleted cells; format: cell-based, human; settings: 5Gy
# Protocol: HEK 293 cells were transfected with Akt siRNA and control-siRNA (Santa Cruz Biotechnology Inc.) according to the manufacturer's instructions. Semi-quantitative RT-PCR was performed with primers specific for Akt and ACTB in control siRNA and Akt siRNA treated HEK cells for analysing knockdown of Akt […] gene expression.
# Exponentially growing HEK cells post siRNA (siRNA-Akt and control siRNA transfections) were treated with 50 μM DMA for 1 h and irradiated with 0, 1, 2, 5 and 8 Gy of radiation dose at RT. Cells were seeded into 60 mm dishes in triplicate, at various densities and cells were stained with crystal violet to count colonies. Same experiment was done with control siRNA-transfected HEK cells. Percentage radioprotection was calculated by following formula % of Protection in radiation treated cells=(Survival fraction in siRNA+DMA treated cells/Survival fraction in only siRNA treated cells/)×100.
# [4] = system: HEK293 cells; test: Proliferation kinetics in presence of inhibitors; format: cell-based, human
# Protocol: HEK293 cells post 50 μM LY294002 (PI3K/Akt inhibitor) and 10 μM PS1145 (NFκB inhibitor) treatment were treated with 50 μM DMA and 5 Gy radiation. Same experiment was done with control (no inhibitor), only LY294002 and only PS1145 treated HEK cells. Percentage (%) radioprotection of cells at 24, 48 and 72 h was calculated by following formula— % growth of Radiation treated cells=(CNRadiation/CNControl)×100. % growth of DMA+Radiation treated cells=(CNDMA+Radiaion/CNControl)×100. % Radioprotection=% growth of DMA+Radiation treated cells−% growth of Radiation treated cells where CN is the cell number.
# [5] = system: Balb/c mice liver tissue; test: Biochemical estimations of antioxidant enzymes, thiols and lipid peroxidation in liver; format: in vivo, mouse; parameters: MDA level in hepatic tissues / Reduced glutathione (GSH) level in liver / GST level / GST content / SOD activity / SOD level / Total thiol contents in liver homogenates: unit not given here
# Protocol: Mice hepatic tissues were homogenised using REMI homogenizer in phosphate buffer and centrifuged at 10,000×g for 15 min and aliquots of supernatant were separated. The supernatant was used for the biochemical estimations using standard spectrophotometric reported methods. The total protein was determined by the Lowry method.
# The liver supernatant was incubated for 10 min and the absorbance was measured at 412 nm and total thiol content was calculated by standard method. The amount of MDA was done by reaction with thiobarbituric acid (TBA) at 532 nm by literature method.
# Glutathione was measured according to the Ellman's method.
# Superoxide dismutase (SOD) activity was assayed according to the Marklund and Marklund method. The activity of GST was determined by using CDNB as the substrate. The reaction mixture contained 1 mM of CDNB, 1 mM GSH in 0.1M phosphate buffer (pH 6.5). The formation of the GSH-CDNB conjugate was determined at 340 nm and the activity was calculated by using e=9.6 mM-1 cm-1.
# [6] = system: melanoma bearing Balb/c mice; settings: 300 mg/kg oral (Nimesh et al. 2015); cited from earlier work
# [7] = Balb/c, mouse, plasma, 100 mg/kg oral
# [8] = DMA pre-treated to radiation group
smiles,measurement,setting,value
"COc1ccc(-c2nc3cc(-c4nc5cc(N6CCN(C)CC6)ccc5[nH]4)ccc3[nH]2)cc1OC [DMA, 5-(4-methylpiperazin-1-yl)-2-[2′-(3,4-dimethoxyphenyl)-5′-benzimidazolyl]benzimidazole]",Maximum concentration observed in plasma,[1]; 50 mg/kg i.v.,4291.95 ng/mL
same,Volume of distribution (Vss),[1]; 50 mg/kg i.v.,larger than the total blood volume of mouse
same,Plasma peak concentration,[1]; 100 mg/kg oral,445.8 ng/mL
same,Time to decline to basal level in plasma,[1]; 100 mg/kg oral,16 h
same,half-life,"[1]; Balb/c, mouse, plasma, iv, 50 mg/kg i.v.",2.65 h
same,Tmax,[1]; [7],1.5 h
same,half-life,[1]; [7],3.5 h
same,AUC,"[1]; Balb/c, mouse, plasma, 100 mg/kg oral, read-out: Area under curve (AUC), plasma",669 ng·h/mL
same,clearance,"[1]; Balb/c, plasma, intravenous, 50 mg/kg, mouse, hepatic blood flow 5.4 L/h/kg, read-out: Systemic clearance (converted)",195 mL/min/kg
same,Clearance from plasma,[1]; oral and i.v. routes,rapid clearance
same,Akt mRNA expression,[2]; DMA 50 mg/kg i.v. + 8Gy TBI vs control,higher expression
same,"Bax, Bcl-2 and p21 mRNA expression level",[2]; DMA by itself,did not increase
same,Gadd45α mRNA expression,[2]; DMA by itself,significantly increased
same,Bax gene expression,[2]; [8],no significant downregulation
same,Bcl-2 mRNA level,[2]; [8],insignificant increase
same,p21 mRNA expression,[2]; DMA pretreatment 50 mg/kg i.v. to radiation vs radiation,significantly downregulated
same,Gadd45α mRNA expression,[2]; DMA pretreatment to radiation,augmented
same,% radioprotection (clonogenicity),[3]; Akt siRNA treated cells,7.5%
same,% radioprotection (clonogenicity),[3]; control siRNA treated cells,40.6%
same,% radioprotection by DMA,"[4]; LY294002 and PS1145 simultaneously, 24 h",3%
same,% radioprotection by DMA,"[4]; LY294002 and PS1145 simultaneously, 48 h",2.2%
same,% radioprotection by DMA,"[4]; LY294002 and PS1145 simultaneously, 72 h",2%
same,% radioprotection by DMA,"[4]; LY294002 treated cells, 24 h",15%
same,% radioprotection by DMA,"[4]; LY294002 treated cells, 48 h",10%
same,% radioprotection by DMA,"[4]; LY294002 treated cells, 72 h",4%
same,% radioprotection by DMA,"[4]; PS1145 treated cells, 24 h",4%
same,% radioprotection by DMA,"[4]; PS1145 treated cells, 48 h",3.5%
same,% radioprotection by DMA,"[4]; PS1145 treated cells, 72 h",2.4%
same,% radioprotection by DMA,"[4]; no inhibitor, 50 μM DMA, 5 Gy, 24 h",40%
same,% radioprotection by DMA,"[4]; no inhibitor, 50 μM DMA, 5 Gy, 48 h",35%
same,% radioprotection by DMA,"[4]; no inhibitor, 50 μM DMA, 5 Gy, 72 h",16%
same,Glutathione reductase activity,[5]; DMA 2 h prior to irradiation vs irradiated group,significant decrease
same,SOD activity,[5]; DMA only,16.96±1.35
same,GST level,"[5]; DMA only, 200 mg/kg oral",2.76±0.32
same,MDA level in hepatic tissues,"[5]; DMA only, 200 mg/kg oral",0.19±0.06
same,Reduced glutathione (GSH) level in liver,"[5]; DMA only, 200 mg/kg oral",5.07±0.09
same,Reduced glutathione (GSH) level in liver,[5]; DMA pre-treatment + 8Gy TBI,3.73±0.69
same,MDA level in hepatic tissues,"[5]; DMA pre-treatment + 8Gy TBI, 24 h post-irradiation",0.20±0.04
same,Total thiol contents in liver homogenates,[5]; DMA pre-treatment + TBI,0.91±0.08
same,SOD level,[5]; DMA pre-treatment to radiation (8Gy),15.50±0.60
same,GST content,[5]; DMA prior to radiation,2.78±0.25
same,Protection of tumor tissues,[6],no protection to tumor tissues
